According to patent US20240148821A1, “PHARMACEUTICAL USE OF CYCLIC PEPTIDE COMPOUND” (CHUGAI SEIYAKU KABUSHIKI KAISHA, priority 2021, published 2024):
Numbered stars: 1 amine (or outer) side, 2 acyl side, 3 side chain; on linkers, the order of the positions; unused ones are H or OH. Bridge positions count the residues as written; N and C are the ends. Square brackets hold non-standard residues; d marks the D form. Peptide text beside a SMILES is read from it. * marks the point of attachment. hPhe(3-Cl-4-CF3) = N[C@@H](CCc1ccc(C(F)(F)F)c(Cl)c1)C(=O)O; NMeAbu(4,4,4-F3) = CN[C@@H](CC(F)(F)F)C(=O)O; NMePhe(4-Me) = CN[C@@H](Cc1ccc(C)cc1)C(=O)O; X48 = CN([C@@H](CCc1cccnc1)C(=O)[*:2])[*:1]; NMePhe(4-F) = CN[C@@H](Cc1ccc(F)cc1)C(=O)O; NMePhe(2-Me) = CN[C@@H](Cc1ccccc1C)C(=O)O; Abu(4,4,4-F3) = N[C@@H](CC(F)(F)F)C(=O)O; NMeAla(cPent) = CN[C@@H](CC1CCCC1)C(=O)O; NMeGly(cPent) = CN[C@H](C(=O)O)C1CCCC1; NMe3Pal = CN[C@@H](Cc1cccnc1)C(=O)O; NMeCha = CN[C@@H](CC1CCCCC1)C(=O)O; Pro(4-oxo) = O=C1CN[C@H](C(=O)O)C1; NMeChg = CN[C@H](C(=O)O)C1CCCCC1; NMeF = CN[C@@H](Cc1ccccc1)C(=O)O; NMeI = CC[C@H](C)[C@H](NC)C(=O)O; Gly(cPr) = N[C@H](C(=O)O)C1CC1; NMeD = CN[C@@H](CC(=O)O)C(=O)O; NMeL = CN[C@@H](CC(C)C)C(=O)O; NMeV = CN[C@H](C(=O)O)C(C)C; d(β3hA) = C[C@@H](N)CC(=O)O; NMeS = CN[C@@H](CO)C(=O)O; Morpholide = C1CN(*)CCO1; NMeA = CN[C@@H](C)C(=O)O; Piperidide = C1CCN(*)CC1; Pyrrolidide = C1CCN(*)C1; dNMeA = CN[C@H](C)C(=O)O; Ac5c = NC1(C(=O)O)CCCC1; Aze = O=C(O)[C@@H]1CCN1; Ac4c = NC1(C(=O)O)CCC1; Cyclopropyl = C1CC1*; Sar = CNCC(=O)O; Propyl = CCC*

test system: Human pancreatic cancer cell line AsPC-1 (G12D mutation Kras); experiment: AsPC-1 cell growth inhibition (AsPC-1 CGI); format: cell-based; details: read-out: AsPC-1 cell growth inhibition, 50% growth inhibitory concentration (IC50 value); 96 hours, CellTiter-Glo, values classified in ranges
Experimental: Test compounds were serially dilated with dimethyl sulfoxide, and 200 nL was then dispensed to a U-bottom 96-well plate using Labcyte Echo. […] The cell suspension was dispensed to a. plate containing a test compound at 100 μL per well and incubated at 37° C. in a 5% carbon dioxide gas incubator. 96 hours later, 80 μL of CellTiter-Glo (Promega) was added to each well and fluorescence was measured.

Row | Compound | IC50 [µM]
1 | CC[C@H](C)[C@@H]1NC(=O)[C@H](CC(C)C)N(C)C(=O)C[C@@H](C(=O)N2CCCC2)N(C)C(=O)[C@H](C2CCCC2)N(C)C(=O)C2(CCCC2)NC(=O)[C@@H]2CCCN2C(=O)[C@H](CCc2ccc(C(F)(F)F)c(Cl)c2)NC(=O)CN(C)C(=O)[C@H](CC2CCCCC2)N(C)C(=O)CN(C)C(=O)CN(C)C1=O [Compound 1818] ([NMeL]I[Sar][Sar][NMeCha][Sar][hPhe(3-Cl-4-CF3)]P[Ac5c][NMeGly(cPent)][NMeD]-Pyrrolidide; lactam N-11) | ≤ 0.02
2 | CC[C@H](C)[C@@H]1NC(=O)[C@H](CC(C)C)N(C)C(=O)C[C@@H](C(=O)N2CCCCC2)N(C)C(=O)[C@H](C(C)C)N(C)C(=O)C2(CCCC2)NC(=O)[C@@H]2CC(=O)CN2C(=O)[C@H](CCc2ccc(C(F)(F)F)c(Cl)c2)NC(=O)CN(C)C(=O)[C@H](CC2CCCCC2)N(C)C(=O)[C@@H]2CCN2C(=O)[C@H](C)N(C)C1=O [Compound 1819] ([NMeL]I[NMeA][Aze][NMeCha][Sar][hPhe(3-Cl-4-CF3)][Pro(4-oxo)][Ac5c][NMeV][NMeD]-Piperidide; lactam N-11) | > 0.5
3 | CC[C@H](C)[C@@H]1NC(=O)[C@H](C)N(C)C(=O)C[C@@H](C(=O)N2CCCC2)N(C)C(=O)[C@H](C2CCCCC2)N(C)C(=O)C2(CCCC2)NC(=O)[C@H](Cc2cccnc2)N(C)C(=O)[C@H](CCc2ccc(C(F)(F)F)c(Cl)c2)NC(=O)CN(C)C(=O)[C@H](CC2CCCCC2)N(C)C(=O)CN(C)C(=O)CN(C)C1=O [Compound 1834] ([NMeA]I[Sar][Sar][NMeCha][Sar][hPhe(3-Cl-4-CF3)][NMe3Pal][Ac5c][NMeChg][NMeD]-Pyrrolidide; lactam N-11) | > 0.5
4 | CC[C@H](C)[C@@H]1NC(=O)[C@H](CC(C)C)N(C)C(=O)C[C@@H](C(=O)N(C)C)N(C)C(=O)[C@H]([C@@H](C)CC)N(C)C(=O)C2(CCCC2)NC(=O)[C@@H]2CCCN2C(=O)[C@H](CCc2ccc(C(F)(F)F)c(Cl)c2)NC(=O)CN(C)C(=O)[C@H](Cc2ccc(C)cc2)N(C)C(=O)CN(C)C(=O)CN(C)C1=O [Compound 1836] ([NMeL]I[Sar][Sar][NMePhe(4-Me)][Sar][hPhe(3-Cl-4-CF3)]P[Ac5c][NMeI][NMeD]-NMe2; lactam N-11) | ≤ 0.02
5 | CC[C@H](C)[C@@H]1NC(=O)[C@H](CC(C)C)N(C)C(=O)C[C@@H](C(=O)N2CCCCC2)N(C)C(=O)[C@H](C2CCCCC2)N(C)C(=O)C2(CCCC2)NC(=O)[C@@H]2CCCN2C(=O)[C@H](CCc2ccc(C(F)(F)F)c(Cl)c2)NC(=O)CN(C)C(=O)[C@H](CC(F)(F)F)N(C)C(=O)CN(C)C(=O)CN(C)C1=O [Compound 1841] ([NMeL]I[Sar][Sar][NMeAbu(4,4,4-F3)][Sar][hPhe(3-Cl-4-CF3)]P[Ac5c][NMeChg][NMeD]-Piperidide; lactam N-11) | > 0.5
6 | CC[C@H](C)[C@@H]1NC(=O)[C@H](C)N(C)C(=O)C[C@@H](C(=O)N2CCCCC2)N(C)C(=O)[C@H](C(C)C)N(C)C(=O)C2(CCCC2)NC(=O)[C@@H]2CCCN2C(=O)[C@H](CCc2ccc(C(F)(F)F)c(Cl)c2)NC(=O)[C@@H](C)N(C)C(=O)[C@H](Cc2ccccc2)N(C)C(=O)CN(C)C(=O)CN(C)C1=O [Compound 1844] ([NMeA]I[Sar][Sar][NMeF][dNMeA][hPhe(3-Cl-4-CF3)]P[Ac5c][NMeV][NMeD]-Piperidide; lactam N-11) | > 0.5
7 | CC[C@H](C)[C@@H]1NC(=O)[C@H](CC(C)C)N(C)C(=O)C[C@@H](C(=O)N2CCOCC2)N(C)C(=O)[C@H](C(C)C)N(C)C(=O)C2(CCCC2)NC(=O)[C@@H]2CCCN2C(=O)[C@H](CCc2ccc(C(F)(F)F)c(Cl)c2)NC(=O)CN(C)C(=O)[C@H](CC2CCCC2)N(C)C(=O)CN(C)C(=O)CN(C)C1=O [Compound 1848] ([NMeL]I[Sar][Sar][NMeAla(cPent)][Sar][hPhe(3-Cl-4-CF3)]P[Ac5c][NMeV][NMeD]-Morpholide; lactam N-11) | > 0.5
8 | CC[C@H](C)[C@@H]1NC(=O)[C@H](C)N(C)C(=O)C[C@@H](C(=O)N2CCCCC2)N(C)C(=O)[C@H](C(C)C)N(C)C(=O)C2(CCCC2)NC(=O)[C@@H]2CCCN2C(=O)[C@H](CCc2ccc(C(F)(F)F)c(Cl)c2)NC(=O)[C@@H](C)N(C)C(=O)[C@H](Cc2ccc(F)cc2)N(C)C(=O)[C@@H]2CCCN2C(=O)CN(C)C1=O [Compound 1853] ([NMeA]I[Sar]P[NMePhe(4-F)][dNMeA][hPhe(3-Cl-4-CF3)]P[Ac5c][NMeV][NMeD]-Piperidide; lactam N-11) | > 0.5
9 | CCCOC[C@H]1C(=O)N(C)[C@H](C(=O)N2CCCCC2)CC(=O)N(C)[C@@H](CC(C)C)C(=O)N[C@@H]([C@@H](C)CC)C(=O)N(C)[C@@H](C)C(=O)N2CC[C@H]2C(=O)N(C)[C@@H](CC2CCCCC2)C(=O)N(C)CC(=O)N[C@@H](CCc2ccc(C(F)(F)F)c(Cl)c2)C(=O)N2CCC[C@H]2C(=O)NC2(CCCC2)C(=O)N1C [Compound 1855] ([NMeL]I[NMeA][Aze][NMeCha][Sar][hPhe(3-Cl-4-CF3)]P[Ac5c][NMeS](Propyl)[NMeD]-Piperidide; lactam N-11) | > 0.5
10 | CC[C@H](C)[C@@H]1NC(=O)[C@H](CC(C)C)N(C)C(=O)C[C@@H](C)NC(=O)[C@H](C2CCCCC2)N(C)C(=O)C2(CCCC2)NC(=O)[C@@H]2CCCN2C(=O)[C@H](CCc2ccc(C(F)(F)F)c(Cl)c2)NC(=O)CN(C)C(=O)[C@H](Cc2ccc(C)cc2)N(C)C(=O)CN(C)C(=O)CN(C)C1=O [Compound 1856] (cyclo([Ac5c][NMeChg][d(β3hA)][NMeL]I[Sar][Sar][NMePhe(4-Me)][Sar][hPhe(3-Cl-4-CF3)]P)) | > 0.5
11 | CC[C@H](C)[C@@H]1NC(=O)[C@H](CC(C)C)N(C)C(=O)C[C@@H](C(=O)N2CCCCC2)N(C)C(=O)[C@H](COC2CC2)N(C)C(=O)C2(CCCC2)NC(=O)[C@@H]2CCCN2C(=O)[C@H](CCc2ccc(C(F)(F)F)c(Cl)c2)NC(=O)CN(C)C(=O)[C@H](CC2CCCCC2)N(C)C(=O)CN(C)C(=O)CN(C)C1=O [Compound 1857] ([NMeL]I[Sar][Sar][NMeCha][Sar][hPhe(3-Cl-4-CF3)]P[Ac5c][NMeS](Cyclopropyl)[NMeD]-Piperidide; lactam N-11) | > 0.5
12 | CC[C@H](C)[C@@H]1NC(=O)[C@H](CC(C)C)N(C)C(=O)C[C@@H](C(=O)N(C)C)N(C)C(=O)[C@H]([C@@H](C)CC)N(C)C(=O)C2(CCCC2)NC(=O)[C@@H]2CCCN2C(=O)[C@H](CCc2ccc(C(F)(F)F)c(Cl)c2)NC(=O)CN(C)C(=O)[C@H](CC2CCCCC2)N(C)C(=O)[C@@H]2CCN2C(=O)[C@H](C)N(C)C1=O [Compound 1858] ([NMeL]I[NMeA][Aze][NMeCha][Sar][hPhe(3-Cl-4-CF3)]P[Ac5c][NMeI][NMeD]-NMe2; lactam N-11) | ≤ 0.02
13 | CC(C)C[C@H]1C(=O)N[C@@H](C2CC2)C(=O)N(C)CC(=O)N(C)CC(=O)N(C)[C@@H](CC2CCCCC2)C(=O)N(C)CC(=O)N[C@@H](CCc2ccc(C(F)(F)F)c(Cl)c2)C(=O)N2CCC[C@H]2C(=O)NC2(CCCC2)C(=O)N(C)[C@@H](C2CCCCC2)C(=O)N(C)[C@H](C(=O)N2CCCCC2)CC(=O)N1C [Compound 1862] ([NMeL][Gly(cPr)][Sar][Sar][NMeCha][Sar][hPhe(3-Cl-4-CF3)]P[Ac5c][NMeChg][NMeD]-Piperidide; lactam N-11) | > 0.5
14 | CC(C)C[C@H]1C(=O)N[C@@H](CC(F)(F)F)C(=O)N(C)[C@@H](C)C(=O)N2CC[C@H]2C(=O)N(C)[C@@H](CC2CCCCC2)C(=O)N(C)CC(=O)N[C@@H](CCc2ccc(C(F)(F)F)c(Cl)c2)C(=O)N2CCC[C@H]2C(=O)NC2(CCCC2)C(=O)N(C)[C@@H](C(C)C)C(=O)N(C)[C@H](C(=O)N2CCCCC2)CC(=O)N1C [Compound 1864] ([NMeL][Abu(4,4,4-F3)][NMeA][Aze][NMeCha][Sar][hPhe(3-Cl-4-CF3)]P[Ac5c][NMeV][NMeD]-Piperidide; lactam N-11) | > 0.5
15 | CC[C@H](C)[C@@H]1NC(=O)[C@H](CC(C)C)N(C)C(=O)C[C@@H](C(=O)N(C)C)N(C)C(=O)[C@H]([C@@H](C)CC)N(C)C(=O)C2(CCCC2)NC(=O)[C@@H]2CCCN2C(=O)[C@H](CCc2ccc(C(F)(F)F)c(Cl)c2)NC(=O)CN(C)C(=O)[C@H](CC2CCCCC2)N(C)C(=O)CN(C)C(=O)CN(C)C1=O [Compound 1865] ([NMeL]I[Sar][Sar][NMeCha][Sar][hPhe(3-Cl-4-CF3)]P[Ac5c][NMeI][NMeD]-NMe2; lactam N-11) | ≤ 0.02
16 | CC[C@H](C)[C@@H]1NC(=O)[C@H](CC(C)C)N(C)C(=O)C[C@@H](C(=O)N2CCOCC2)N(C)C(=O)[C@H](C2CCCCC2)N(C)C(=O)C2(CCC2)NC(=O)[C@@H]2CCCN2C(=O)[C@H](CCc2ccc(C(F)(F)F)c(Cl)c2)NC(=O)CN(C)C(=O)[C@H](CC2CCCCC2)N(C)C(=O)CN(C)C(=O)CN(C)C1=O [Compound 1875] ([NMeL]I[Sar][Sar][NMeCha][Sar][hPhe(3-Cl-4-CF3)]P[Ac4c][NMeChg][NMeD]-Morpholide; lactam N-11) | ≤ 0.02
17 | CC[C@H](C)[C@@H]1NC(=O)[C@H](CC(C)C)N(C)C(=O)C[C@@H](C(=O)N(C)C)N(C)C(=O)[C@H](C2CCCC2)N(C)C(=O)C2(CCCC2)NC(=O)[C@H](Cc2ccccc2C)N(C)C(=O)[C@H](CCc2ccc(C(F)(F)F)c(Cl)c2)NC(=O)CN(C)C(=O)[C@H](CC2CCCCC2)N(C)C(=O)[C@@H]2CCN2C(=O)[C@H](C)N(C)C1=O [Compound 1880] ([NMeL]I[NMeA][Aze][NMeCha][Sar][hPhe(3-Cl-4-CF3)][NMePhe(2-Me)][Ac5c][NMeGly(cPent)][NMeD]-NMe2; lactam N-11) | > 0.5
18 | CC[C@H](C)[C@@H]1NC(=O)[C@H](CC(C)C)N(C)C(=O)C[C@@H](C(=O)N(C)C)N(C)C(=O)[C@H]([C@@H](C)CC)N(C)C(=O)C2(CCCC2)NC(=O)[C@H](CCc2cccnc2)N(C)C(=O)[C@H](CCc2ccc(C(F)(F)F)c(Cl)c2)NC(=O)CN(C)C(=O)[C@H](Cc2ccc(C)cc2)N(C)C(=O)[C@@H]2CCN2C(=O)[C@H](C)N(C)C1=O [Compound 1886] ([NMeL]I[NMeA][Aze][NMePhe(4-Me)][Sar][hPhe(3-Cl-4-CF3)][X48][Ac5c][NMeI][NMeD]-NMe2; lactam N-11) | ≤ 0.02
